The values below come from paper PMC6706398 (Scientific Reports, 2019).

Usually Kd stands for the equilibrium constant for the complex coming apart.

Assay [1] concerns CT. The conditions noted are these: cited from earlier work.
Assay [2] concerns the target CT. The conditions noted are these: cited from earlier work. The source holds these as a separate data set.
Assay [3] addresses wild-type CT holotoxin (cCT) (Vibrio cholerae, UniProt Q57193). Kind of assay: biochemical. The assay is classed as binding.
In assay [4] the test system is CTB binding in cell culture (intestinal epithelial cells). Conditions: cited from earlier work.
For assay [5], the system named is CTB binding to jejunal epithelial cells. Conditions: cited from earlier work.

Where “and” joins values, the source holds several entries; their conditions need not be identical. Equal values may be shown once. Read-outs that look alike come from different tables or passages of the source.

For the compound `CC(=O)N[C@H]1[C@H](O[C@@H]2[C@H](O[C@]3(C(=O)O)C[C@H](O)[C@@H](NC(C)=O)[C@H]([C@H](O)[C@H](O)CO)O3)[C@@H](O)[C@H](O[C@H]3[C@H](O)[C@@H](O)[C@H](O)O[C@@H]3CO)O[C@@H]2CO)O[C@H](CO)[C@H](O)[C@@H]1O[C@@H]1O[C@H](CO)[C@H](O)[C@H](O)[C@H]1O[C@@H]1O[C@@H](C)[C@@H](O)[C@@H](O)[C@@H]1O` [Fucosyl-GM1], the “binding to CT relative to GM1” value with CT [1] was “almost as strongly as GM1”. For `CC(=O)N[C@H]1[C@H](O[C@@H]2[C@H](O[C@]3(C(=O)O)C[C@H](O)[C@@H](NC(C)=O)[C@H]([C@H](O)[C@H](O)CO)O3)[C@@H](O)[C@H](O[C@H]3[C@H](O)[C@@H](O)[C@H](O)O[C@@H]3CO)O[C@@H]2CO)O[C@H](CO)[C@H](O)[C@@H]1O[C@@H]1O[C@H](CO)[C@H](O)[C@H](O)[C@H]1O[C@@H]1O[C@@H](C)[C@@H](O)[C@@H](O)[C@@H]1O` [GM1os], the Kd on CT [2] was 43 nM; in assay [3] it was 5.77e-05 ± 3e-07 mM. Regarding `C[C@H](O)[C@@H](O)[C@@H](O)[C@H](O)C=O` [L-fucose], the “blocking of CTB binding in cell culture” value in assay [4] is given as “block CTB binding”.

In turn, `CC(=O)N[C@H]1[C@H](O[C@@H]2[C@@H](O)[C@H](O)O[C@H](CO)[C@@H]2O)O[C@H](CO)[C@@H](O[C@@H]2O[C@H](CO)[C@H](O)[C@H](O)[C@H]2O)[C@@H]1O[C@@H]1O[C@@H](C)[C@@H](O)[C@@H](O)[C@@H]1O` [Le^x tetraose] registered a Kd in assay [3] (Kd) of 7.7 ± 0.5 mM. As to `CC(=O)N[C@@H]1[C@@H](O[C@@H]2O[C@@H](C)[C@@H](O)[C@@H](O)[C@@H]2O)[C@H](O[C@@H]2O[C@H](CO)[C@H](O)[C@H](O)[C@H]2O)[C@@H](CO)O[C@H]1O` [Le^x triaose], the “blocking of CTB binding to jejunal epithelial cells” value in assay [5] is given as “can be blocked”. Also, in assay [3] (Kd), the Kd is 8.1 mM and 8 mM.
